Results reported in a melting point compilation (Tetko et al.; mined from patent text by program, amines drawn as free bases though some values may be those of a salt).

| SMILES | melting point |
| --- | --- |
| O=c1ccc(=O)c2c(=O)c3ccccc3c(=O)c1=2 | 211 to 213 °C |
| O=C(O)c1cc2c(Cl)cccc2s1 | 227 to 231 °C |
| CCOC(=O)c1cn(-c2ccc(F)c(NC(C)(C)C)n2)c2c(Br)c(F)c(F)cc2c1=O | 192 to 195 °C |
| Cc1cc2nc(-c3cc(C(F)(F)F)nn3-c3ccc(S(C)(=O)=O)cc3)sc2cc1F | 193 to 194 °C |
| CCCCCN(CCC12CC3CC(CC(C3)C1)C2)C(=O)NCC(C)(C)Cc1ccncc1 | 82.5 to 84.9 °C |
| COC(=O)C1Cc2sc3c(c2C1)C(c1ccccc1Cl)=NCC(N(C)C1(C)OCCO1)=N3 (stereo unspecified) | 166 to 168 °C |
| O=c1[nH]c2c(Cl)cccc2c(=O)n1CCCN1CC=C(c2cccc(Cl)c2)CC1 | 210 to 215 °C |
| CC(C)(C)OCC(O)CN (stereo unspecified) | 41 to 43 °C |
| CCS(=O)(=O)c1ncc(S(N)(=O)=O)s1 | 129 to 130 °C |
| COc1cc2[nH]c(=O)nc(C)c2c(OC)c1OC | 229 to 230 °C |
| O=C(Nc1ccc(N2CCOCC2)c(C(F)(F)F)c1)c1ccc(F)c(OCc2cccnc2)c1 | 160 to 161 °C |
| CCOC(=O)C(C)=NNc1ccc(F)c(Cl)c1 | 89 to 91 °C |
| CCOC(=O)C1=CCCCC1S(=O)(=O)Nn1cccc1CC (stereo unspecified) | 77 to 78 °C |
| CSC(=NCCSCc1nccs1)NC(=O)c1ccccc1 | 64 to 65 °C |
| COC(=O)c1cccc(-c2cc(-c3ccc(Cl)cc3)on2)c1 | 157 to 158 °C |
| CCC1(CCCCN2CCN(c3ccccn3)CC2)C(=O)Nc2ccc(C)cc21 (stereo unspecified) | 168 to 170 °C |
| COc1ccc(S(=O)(=O)n2ccc3ccnc(-c4ccc(N(C)C)cc4)c32)cc1 | 112 to 114 °C |
| Cc1ccc(O)c(C(OC2CCN(C)CC2)c2nc3ccccc3[nH]2)c1 (stereo unspecified) | 151 °C |
| C=CCc1c(C)nc(C)nc1NCc1ccc(-c2ccccc2-c2nnn[nH]2)cc1 | 259 to 260 °C |
| CC1(C)OC(=O)Nc2ccc(-c3sccc3C#N)cc21 | 200 to 202 °C |
| N#Cc1ccc(F)cc1-c1ccc(C(F)(F)F)cc1 | 106 to 107 °C |
| CCC(Cc1ccc(C(C)C(=O)O)cc1)C(C)O (stereo unspecified) | 100 to 103 °C |
| COC(=O)c1cc(Br)cc(I)c1 | 55 to 57 °C |
| O=C(O)c1cc(=O)c2ccc(COc3ccc(OCc4ccc5ccccc5n4)cc3)cc2o1 | 216 to 219 °C |

| SMILES | melting point |
| --- | --- |
| COc1ccc(CC(=NNS(=O)(=O)c2ccc(C)cc2)c2cc(OC)cc(OC)c2)cc1 | 120 to 121 °C |
| O=C(O)C1CCCC(NC(=O)C(CS)Cc2ccccc2)C1 (stereo unspecified) | 174 to 177 °C |
| CC(C)(C)c1ccccc1C(=O)O | 38.5 to 40.5 °C |
| Cc1nc(C(F)(F)F)ccc1C(=O)c1c(S(C)=O)noc1C1CC1 (stereo unspecified) | 96 to 97 °C |
| CCCCN(CC(O)C(Cc1ccccc1)NC(=O)C(CC(N)=O)NC(=O)NCc1ccccc1)C(=O)NC(C)(C)C (stereo unspecified) | 166 to 167 °C |
| Cc1ccc(Cc2cnc(NCCCCNc3ncc(Cl)cc3C)[nH]c2=O)cn1 | 202 to 203 °C |
| CN(C)c1ccc(S(=O)c2ccccc2)cc1N (stereo unspecified) | 85 to 86 °C |
| Cc1cc(C=NO)ccc1C(=O)NCc1ccccn1 | 160 to 161 °C |
| COc1ccc(CNc2nc(N3CCC[C@H]3CO)ncc2C(=O)O)cc1Cl | 205 to 208 °C |
| N#CCN1CCC(Nc2nc3ccccc3n2Cc2ccnc3ccccc23)CC1 | 190 °C |
| CCOC(=O)C1(C(=O)OCC)N(Cc2ccc(OC)cc2OC)C(=O)CC1(C)O (stereo unspecified) | 106 to 107 °C |
| Cc1ccc(S(=O)(=O)NCCCCCCCCCCCn2c3c(c4ccccc4c2=O)C(=O)c2ccccc2-3)cc1 | 170 to 172 °C |
| CN(C)C(=O)n1ccc(-c2ccc(Oc3ccc(F)cc3)cc2)n1 | 59 to 63 °C |
| CCOP(=O)(COc1ccc(-c2c3ccccc3cc3sc4ccccc4c23)cc1)OCC | 129 to 130 °C |
| Cc1c(NC(=O)c2ccc(-c3ccc(F)cc3)nc2)ccc2cc(CN3CCCC3)cnc12 | 207 to 209 °C |
| CN1OCN=C1c1nn(-c2c(Cl)cc(C(F)(F)F)cc2Cl)c(N)c1S(=O)C(F)(F)F (stereo unspecified) | 165 to 167 °C |
| O=[N+]([O-])c1ccc2onc(-c3ccccc3O)c2c1 | 172 to 176 °C |
| CC(C)(C)NS(=O)(=O)c1ccc([N+](=O)[O-])cc1 | 105 to 109 °C |
| CCc1cccc2c3c([nH]c12)C(CC)(CCOC)OCC3 (stereo unspecified) | 125 to 126 °C |
| CCCc1nn(-c2ccc(C(F)(F)F)cn2)cc1CCCOc1ccc(CCC(=O)O)c(OC)c1 | 114 to 115 °C |
| CNNc1nncc(-c2ccccc2)n1 | 112 to 113 °C |
| CC(=O)c1ccc(OCC(O)COc2cccc([N+](=O)[O-])c2)cc1O (stereo unspecified) | 119 to 122 °C |
| CC(C)NCC(O)COc1ccc2ncsc2c1 (stereo unspecified) | 132 to 134 °C |
| CCOc1nn(-c2ccc(C(F)(F)F)cn2)cc1CCCOc1ccc(CCC(=O)O)cc1O | 124 to 125 °C |

| SMILES | melting point |
| --- | --- |
| Cc1cc2c(c(C)c1NC(=O)OC(C)(C)C)C(=O)C(C)(C)O2 | 156 to 157 °C |
| NC(=O)c1cccc(-c2cc(OC(=O)NC3CCCCC3)ccc2O)c1 | 128 to 130 °C |
| O=C(/C=C/[C@@H]1[C@H]2CC(=O)O[C@H]2C[C@H]1OC(=O)c1ccccc1)CCc1ccccc1 | 119 to 120 °C |
| Cc1ccc(C(=O)O)c([N+](=O)[O-])c1 | 156 to 157 °C |
| Cc1cccc2sc(NN)nc12 | 161 to 166 °C |
| O=c1c2c(Cc3ccc(O)cc3)n[nH]c2c2cccnc2n1-c1ccccc1 | 316 to 317 °C |
| Cc1onc(-c2ccccc2)c1-c1[nH]c2ccccc2c1CCC(=O)N(C)C | 174 to 177 °C |
| O=C(/C=C/c1ccc(C(=O)Nc2cccc(Nc3nc(-c4cccnc4)cs3)c2)s1)NOC1CCCCO1 (stereo unspecified) | 170 °C |
| COc1c(OCC(F)(F)F)ccnc1CSc1nc2ccc(C(F)(F)F)cc2[nH]1 | 80 to 82 °C |
| COc1ccc2c(c1)N(C(C)=O)C1=C(S2)C(S(C)(=O)=O)=CCC1=O | 160 °C |
| O=C(O)c1nc2cc(O)c(O)cc2nc1C(=O)O | > 300 °C |
| O=c1c(CCc2cccs2)cc2cccnc2n1-c1cccc([N+](=O)[O-])c1 | 175 to 176 °C |
| CC(=O)OCC(=O)C1C(C)CC2C3CC(Cl)C4=CC(=O)C=CC4(C)C3C(O)CC21C (stereo unspecified) | 208 °C |
| CCCCCCCCCCCCCCCCCCOc1ccc(C(=O)O)c(OCCCOc2ccc(O)cc2)c1 | 97 to 100 °C |
| COC(=O)CC[C@H](NC(=O)c1ccc(CCC2CNc3nc(NC(=O)C(C)(C)C)nc(O)c3C2)s1)C(=O)OC (stereo partly specified) | 152 to 160 °C |
| CCOCN1C(C)=C(C(=O)O)C(c2cccc(Cl)c2Cl)C(C(=O)OC)=C1C (single isomer, unassigned; (+)) | 129 to 131 °C |
| O=C1C=C(CBr)C(=O)C(CCC2=CC(=O)C=C(CBr)C2=O)=C1 | 146 to 147 °C |
| O=C1N(c2c(Cl)cccc2Cl)Cc2cnc(Nc3ccccc3)nc2N1c1cccc(CCO)c1 | > 250 °C |
| CCN(CC)c1ccc(C2(c3ccc(N(CC)CC)cc3N(CC)CC)OC(=O)c3c(Cl)c(Cl)c(Cl)c(Cl)c32)c(C)c1 (stereo unspecified) | 162 to 164 °C |
| CCCCN(CCCC)c1ccc(C=CC=CC2=C(C#N)C(=C(C#N)C#N)OC2(c2ccccc2)C(F)(F)F)c(OC)c1 (stereo unspecified) | 190 to 192 °C |
| CONC(=O)C(Oc1cc(OCc2ccsc2)ccc1C#N)c1ccccc1C (racemic) | 155 to 156 °C |
| C#CCOc1cc(-c2ncnc(C(F)(F)F)c2Cl)c(F)cc1Cl | 112 to 113 °C |
| O=c1[nH]c2cc([N+](=O)[O-])c3c(c2[nH]c1=O)CN(S(=O)(=O)c1cccs1)CC3 | > 300 °C |
| COc1ccc(C2(C#Cc3cccc(NS(C)(=O)=O)c3)CCCC(=O)C2)cc1OC1CCCC1 (stereo unspecified) | 59 to 62 °C |

| SMILES | melting point |
| --- | --- |
| COc1ccc2c(c1)C(CCNC(C)=O)CCO2 (stereo unspecified) | 138 °C |
| Clc1ccc(-c2cc(C3CC3)n3nccc3n2)cc1 | 137 to 138 °C |
| C=CCn1c(C)c(C)c2cnnc(SCc3ccc(Cl)cc3)c21 | 107 to 108 °C |
| CC(C)(C)OC(=O)N1C(=O)C(C2=COc3ccccc3O2)=C(c2cn(C(=O)OC(C)(C)C)c3cc(OCc4ccccc4)ccc23)C1=O | 81 °C |
| CC(=O)N1CCC(CCC(=O)c2cc3c4c(c2)CCN4C(=O)CC3)CC1 | 157 to 159 °C |
| CCc1cc(O)n2ccnc2n1 | 93 to 94 °C |
| Cn1nc(-c2ccc(NN=C(CCC(=O)O)c3ccc(O)cc3O)cc2)ccc1=O | 138 to 141 °C |
| O=C1CCN(c2ccc(S(=O)(=O)NCc3ccccc3)cc2)CC1 | 136 to 140 °C |
| COc1ccc(N2C(=O)C(O)C2c2ccccc2Cl)cc1 (stereo unspecified) | 178 to 180 °C |
| CCOC(=O)c1nc2ccc(C(C(C)C)n3ccnc3)cc2[nH]c1=O (stereo unspecified) | 185 °C |
| COc1cc(C=Cc2ccc(=O)[nH]n2)cc(OC)c1OC | 194 to 196 °C |
| COc1ccc(COC(=O)c2cc([N+](=O)[O-])c3ccccc3c2O)cc1 | 163 to 164 °C |
| Nc1nc(OCCC2CCCCC2)nc2c1ncn2C1OC(CO)C(O)C1O (stereo unspecified) | 105 to 112 °C |
| O=C(O)c1cn(-c2ccc(F)cc2F)c2cc(N3CCC4(C3)OCCCO4)c(F)cc2c1=O | 168 to 170 °C |
| CN1N=C(c2cccc(F)c2)c2cc(Cl)ccc2CS1(=O)=O | 172 to 173 °C |
| NCC(c1ccc(OCc2ccccc2)cc1)C1CCCCC1O (mixture of isomers) | 160 to 161 °C |
| CCOC(=O)c1c(OC)c2ccccc2c2nc3ccccc3nc12 | 155 to 157 °C |
| OC12CC3CC(C1)CC(NC(c1ccccc1)(c1ccccc1)c1ccccc1)(C3)C2 | 184 to 186 °C |
| CC(=O)O[C@H]1CC[C@H](c2ccc(C#N)cc2)CC1 | 130 to 131 °C |
| COc1ccc(C(=O)Nc2c(C)c(C)c3c(c2C)C(c2ccc(C(C)C)cc2)C(C)(C)O3)cc1OC (stereo unspecified) | 171 to 173 °C |
| CN(C)c1cccc2c(S(=O)(=O)NCC(=O)N3CCCC3C(=O)NC(C=O)CCCN(C(=N)N)C(=O)OCc3ccccc3)cccc12 (stereo unspecified) | 105 to 115 °C |
| Nc1ccn(-c2cccc(Cl)c2)n1 | 106 to 107 °C |
| COc1cc(CCNC(=O)[C@@H](NS(C)(=O)=O)C(C)C)ccc1OCC#Cc1ccccc1 | 130 to 132 °C |
| Cc1nc(N)sc1S(=O)(=O)N(CCO)CCO | 141 °C |
